Laboratory results: ChEMBL document CHEMBL4382262, “Structurally Simple, Readily Available Peptidomimetic 1-Benzyl-5-methyl-4-( n-octylamino)pyrimidin-2(1 H)-one Exhibited Efficient Cardioprotection in a Myocardial Ischemia (MI) Mouse Model” (J Med Chem, 2018)
Activity calls are given as the source filed them. No cut-off for these calls is given here.

Assays:
[1] = target: T1, Toll-like receptor 4 (Rattus norvegicus) (UniProt Q9QX05); assay: Inhibition of TLR4 in Sprague-Dawley rat cardiomyocytes assessed as reduction in hypoxia-induced IRF3 protein expression at 20 uM preincubated for 1 hr followed by hypoxia for 3 hrs by Western blot analysis relative to untreated control; type: cell-based
T1 sequence (whole entry): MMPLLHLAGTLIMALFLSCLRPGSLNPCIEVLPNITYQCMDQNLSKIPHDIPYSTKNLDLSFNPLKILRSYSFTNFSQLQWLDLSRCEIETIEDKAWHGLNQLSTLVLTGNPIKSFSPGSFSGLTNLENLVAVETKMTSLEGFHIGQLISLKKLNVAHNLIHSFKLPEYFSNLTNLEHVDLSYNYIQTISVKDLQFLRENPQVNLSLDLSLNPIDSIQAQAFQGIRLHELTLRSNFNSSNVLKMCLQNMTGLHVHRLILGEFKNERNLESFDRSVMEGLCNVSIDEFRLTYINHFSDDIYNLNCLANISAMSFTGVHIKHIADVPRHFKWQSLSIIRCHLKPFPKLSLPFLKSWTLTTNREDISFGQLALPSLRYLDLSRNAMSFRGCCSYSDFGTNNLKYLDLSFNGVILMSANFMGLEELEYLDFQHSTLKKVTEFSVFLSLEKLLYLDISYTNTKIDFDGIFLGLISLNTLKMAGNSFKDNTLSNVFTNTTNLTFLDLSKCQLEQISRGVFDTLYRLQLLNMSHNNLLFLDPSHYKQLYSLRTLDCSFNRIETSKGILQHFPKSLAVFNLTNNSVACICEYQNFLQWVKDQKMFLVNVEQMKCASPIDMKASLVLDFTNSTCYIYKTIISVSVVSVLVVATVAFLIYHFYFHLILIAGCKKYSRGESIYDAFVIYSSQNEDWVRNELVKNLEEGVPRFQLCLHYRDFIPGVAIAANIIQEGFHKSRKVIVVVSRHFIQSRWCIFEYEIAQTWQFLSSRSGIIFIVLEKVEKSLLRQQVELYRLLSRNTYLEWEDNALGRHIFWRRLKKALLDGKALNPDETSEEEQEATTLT

[2] = target: T1, Toll-like receptor 4 (Rattus norvegicus); assay: Inhibition of TLR4 in Sprague-Dawley rat cardiomyocytes assessed as reduction in hypoxia-induced LDH release at 5 uM preincubated for 1 hr followed by hypoxia for 3 hrs by NADH detection based colorimetric analysis; type: cell-based
[3] = target: T1, Toll-like receptor 4 (Rattus norvegicus); assay: Inhibition of TLR4 in Sprague-Dawley rat cardiomyocytes assessed as reduction in hypoxia-induced creatine kinase levels at 20 uM preincubated for 1 hr followed by hypoxia for 3 hrs by NADP reduction based colorimetric analysis; type: cell-based
[4] = target: T1, Toll-like receptor 4 (Rattus norvegicus); assay: Inhibition of TLR4 in Sprague-Dawley rat cardiomyocytes assessed as reduction in hypoxia-induced IL-1beta mRNA expression at 20 uM preincubated for 1 hr followed by hypoxia for 3 hrs by RT-qPCR analysis; type: cell-based
[5] = target: T1, Toll-like receptor 4 (Rattus norvegicus); assay: Inhibition of TLR4 in Sprague-Dawley rat cardiomyocytes assessed as reduction in hypoxia-induced creatine kinase levels at 10 uM preincubated for 1 hr followed by hypoxia for 3 hrs by NADP reduction based colorimetric analysis; type: cell-based
[6] = system: Mus musculus; assay: (§1) Cardioprotective activity in C57BL mouse model of left anterior descending coronary artery ligation-induced myocardial ischemia assessed as survival rate at 0.3 mg/kg, iv treated 1 hr after left anterior descending coronary artery ligation and measured after 7 days post LAD; type: functional
[7] = system: Mus musculus; assay: as §1, with “reduction in fibrosis” for “survival rate”, “LAD by hematoxylin/eosin staining based light microscopy” for “LAD”; type: functional, organism-based
[8] = system: Mus musculus; assay: Cardioprotective activity in C57BL mouse model of left anterior descending coronary artery ligation-induced myocardial ischemia assessed as reduction in troponin levels at 0.3 mg/kg, iv pretreated for 1 hr followed by left anterior descending coronary artery ligation; type: functional, organism-based
[9] = target: T1, Toll-like receptor 4 (Rattus norvegicus); assay: Binding affinity to TLR4 in Sprague-Dawley rat cardiomyocytes at 20 uM after 2 hrs by MS/MS-based pull down assay; type: cell-based
[10] = target: T1, Toll-like receptor 4 (Rattus norvegicus); assay: Inhibition of TLR4 in Sprague-Dawley rat cardiomyocytes assessed as reduction in hypoxia-induced LDH release at 10 uM preincubated for 1 hr followed by hypoxia for 3 hrs by NADH detection based colorimetric analysis; type: cell-based
[11] = target: T1, Toll-like receptor 4 (Rattus norvegicus); assay: Inhibition of TLR4 in Sprague-Dawley rat cardiomyocytes assessed as reduction in hypoxia-induced LDH release at 20 uM preincubated for 1 hr followed by hypoxia for 3 hrs by NADH detection based colorimetric analysis; type: cell-based
[12] = Reduction in hypoxia-induced TLR4 protein expression in Sprague-Dawley rat cardiomyocytes at 20 uM preincubated for 1 hr followed by hypoxia for 3 hrs by Western blot analysis relative to untreated control; type: functional, Cardiac muscle cell
[13] = system: Mus musculus; assay: as §1, with “as reduction in creatine kinase levels levels” for “as survival rate”, “after by” for “after”, “after 24 hrs” for “after 7 days”; type: functional, organism-based
[14] = target: T1, Toll-like receptor 4 (Rattus norvegicus); assay: Inhibition of TLR4 in hypoxia-induced Sprague-Dawley rat cardiomyocytes assessed as increase in IkappaB-alpha protein expression at 20 uM preincubated for 1 hr followed by hypoxia for 3 hrs by Western blot analysis relative to untreated control
[15] = system: Mus musculus; assay: Cardioprotective activity in C57BL mouse model of left anterior descending coronary artery ligation-induced myocardial ischemia assessed as reduction in heart infarct size at 0.05 to 1 mg/kg, iv pretreated for 1 hr followed by left anterior descending coronary artery ligation; type: functional, organism-based
[16] = system: Mus musculus; assay: Cardioprotective activity in C57BL mouse model of left anterior descending coronary artery ligation-induced myocardial ischemia assessed as reduction in heart infarct size at 0.3 mg/kg, iv treated 1 hr after left anterior descending coronary artery ligation and measured after 7 days post LAD; type: functional, organism-based
[17] = target: T1, Toll-like receptor 4 (Rattus norvegicus); assay: Inhibition of TLR4 in Sprague-Dawley rat cardiomyocytes assessed as reduction in hypoxia-induced creatine kinase levels at 30 uM preincubated for 1 hr followed by hypoxia for 3 hrs by NADP reduction based colorimetric analysis; type: cell-based
[18] = system: Cardiac muscle cell; assay: Cytotoxicity against Sprague-Dawley rat cardiomyocytes assessed as reduction in cell viability at 50 uM; type: cell-based
[19] = target: T1, Toll-like receptor 4 (Rattus norvegicus); assay: Inhibition of TLR4 in Sprague-Dawley rat cardiomyocytes assessed as reduction in hypoxia-induced TRAM protein expression at 20 uM preincubated for 1 hr followed by hypoxia for 3 hrs by Western blot analysis relative to untreated control; type: cell-based
[20] = target: T1, Toll-like receptor 4 (Rattus norvegicus); assay: Inhibition of TLR4 in Sprague-Dawley rat cardiomyocytes assessed as reduction in hypoxia-induced creatine kinase levels at 5 uM preincubated for 1 hr followed by hypoxia for 3 hrs by NADP reduction based colorimetric analysis; type: cell-based
[21] = system: Mus musculus; assay: Cardioprotective activity in C57BL mouse model of left anterior descending coronary artery ligation-induced myocardial ischemia assessed as reduction in serum LDH levels at 0.3 mg/kg, iv treated for 1 hr after by left anterior descending coronary artery ligation and measured after 24 hrs post LAD; type: functional, organism-based
[22] = target: T1, Toll-like receptor 4 (Rattus norvegicus); assay: Inhibition of TLR4 in Sprague-Dawley rat cardiomyocytes assessed as reduction in hypoxia-induced LDH release at 30 uM preincubated for 1 hr followed by hypoxia for 3 hrs by NADH detection based colorimetric analysis; type: cell-based
[23] = system: Mus musculus; assay: Cardioprotective activity in C57BL mouse model of left anterior descending coronary artery ligation-induced myocardial ischemia assessed as reduction in creatine kinase levels at 0.3 mg/kg, iv treated 1 hr after by left anterior descending coronary artery ligation and measured after 7 days post LAD; type: functional, organism-based

Structure (SMILES): CCCCCCCCNc1nc(=O)n(Cc2ccccc2)cc1C
- fold change (FC) [1]: 2.7
- inhibition [2]: inactive
- inhibition [3]: Active
- fold change (FC) [4]: 15
- inhibition [5]: Active
- survival at 0.3 mg/kg [6]: 100%
- Activity [7]: Active
- Activity [8]: Active
- Activity [9]: Active
- inhibition [10]: Active
- inhibition [11]: Active
- fold change (FC) [12]: 2.7
- Activity [13]: Active
- fold change (FC) [14]: 3.3
- Activity [15]: Active
- Activity [16]: Active
- inhibition [17]: Active
- Activity [18]: Toxic
- fold change (FC) [19]: 2.8
- inhibition [20]: inactive
- Activity [21]: Active
- inhibition [22]: Active
- Activity [23]: Active
